One experiment addresses T1, LXRβ (Homo sapiens, UniProt P55055).
T1 sequence (P55055 1-460): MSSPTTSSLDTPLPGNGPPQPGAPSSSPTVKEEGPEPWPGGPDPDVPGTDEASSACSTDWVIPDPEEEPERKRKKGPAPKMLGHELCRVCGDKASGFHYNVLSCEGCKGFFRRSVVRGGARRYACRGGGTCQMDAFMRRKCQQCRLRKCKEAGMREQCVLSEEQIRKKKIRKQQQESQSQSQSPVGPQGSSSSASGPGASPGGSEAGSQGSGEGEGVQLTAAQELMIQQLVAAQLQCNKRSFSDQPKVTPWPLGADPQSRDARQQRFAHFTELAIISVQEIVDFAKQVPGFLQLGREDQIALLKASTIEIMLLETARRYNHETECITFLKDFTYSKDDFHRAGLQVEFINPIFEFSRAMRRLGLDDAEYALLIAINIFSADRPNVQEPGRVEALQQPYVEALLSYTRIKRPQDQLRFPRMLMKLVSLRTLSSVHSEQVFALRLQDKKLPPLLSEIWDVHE
Kind of experiment: Western blot of LXRβ levels in the nucleus, SH-SY5Y cells. Also noted: endogenous in cells; host or cells: SH-SY5Y human neuroblastoma cells. As to conditions: for LXRβ protein levels in the nucleus: 24 h, treatment alone vs control. In kind it is cell-based. Here is the method: (§1) Human neuroblastoma SH-SY5Y cells were grown in DMEM/F12 medium containing 10% fetal bovine serum (FBS) and 1% antibiotic/antimycotic mix. Cells were maintained at 37° C. in a saturated humidity atmosphere containing 95% air and 5% CO2.
Treated SH-SY5Y cells were washed with PBS and trypsinized to collect the cells and centrifuged at 5000 g. The pellet was washed again with PBS and homogenized in NE-PER tissue protein extraction reagent (Thermo Scientific, Rockford, Ill.) supplemented with protease and phosphatase inhibitors. Protein concentrations from the cytosolic and nuclear homogenates were determined with BCA protein assay.
Proteins (10 μg) were separated on SDS-PAGE gels, transferred to a polyvinylidene difluoride membrane (BioRad, Hercules, Calif.), and incubated with the following monoclonal antibodies: anti-TH mouse antibody (1:1000; Sigma Aldrich, Saint Louis, Mo.), anti-α-synuclein mouse antibody (1:500; Chemicon, Temecula, Calif.), anti-ERα rabbit antibody (1:500; Abcam, Cambridge, Mass.), anti-ERβ rabbit antibody (1:200; Upstate, Lake Placid, N.Y.), anti-LXRα rabbit antibody (1:500; Abcam, Cambridge, Mass.), anti-LXRβ mouse antibody (1:500; Abcam, Cambridge, Mass.).
β-actin and Lamin A were used as a gel loading control for cytosolic homogenates and nuclear homogenates respectively. The blots were developed with enhanced chemiluminescence (Immmun-star HRP chemiluminescent kit, Bio-Rad, Hercules, Calif.). Bands were visualized on a polyvinylidene difluoride membrane and analyzed by LabWorks 4.5 software on a UVP Bioimaging System (Upland, Calif.). Quantification of results was performed by densitometry and the results analyzed as total integrated densitometric values (arbitrary units).

The next experiment concerns the target T2, LXRα (Homo sapiens, UniProt Q13133).
T2 construct: endogenous in cells; host or cells: SH-SY5Y human neuroblastoma cells
T2 sequence (Q13133 1-447): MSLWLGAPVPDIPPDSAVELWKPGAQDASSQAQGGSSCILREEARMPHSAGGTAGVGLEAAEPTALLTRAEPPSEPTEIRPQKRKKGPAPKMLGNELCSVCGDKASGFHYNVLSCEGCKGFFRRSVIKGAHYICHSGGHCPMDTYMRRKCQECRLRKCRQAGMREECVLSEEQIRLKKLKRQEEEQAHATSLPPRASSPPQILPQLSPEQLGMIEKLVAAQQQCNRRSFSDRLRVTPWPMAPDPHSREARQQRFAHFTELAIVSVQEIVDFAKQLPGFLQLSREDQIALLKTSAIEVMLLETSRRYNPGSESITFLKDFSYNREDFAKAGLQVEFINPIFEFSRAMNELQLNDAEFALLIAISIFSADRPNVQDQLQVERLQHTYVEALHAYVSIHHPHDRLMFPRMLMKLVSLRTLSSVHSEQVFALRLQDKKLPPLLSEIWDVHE
Kind of experiment: ChIP, LXRα binding to the LXRE in the α-synuclein promoter. In kind it is cell-based. As to conditions: SH-SY5Y; for LXRα binding to the LXRE on the α-synuclein promoter: treatment alone vs control. Here is the method:
as §1
ChIP analysis was performed to evaluate the extent of ERα/ERβ and LXRα/LXRβ binding to the DNA elements in the TH promoter and α-synuclein promoter regions respectively using “SimpleChIP™ Enzymatic Chromatic IP kit” from Cell Signaling (Boston, Mass.).
Briefly, cells from each treatment group (3×10^6 cells) were washed with PBS, trypsinized, centrifuged at 5000 g. The pellet containing the cells was further washed with PBS and cross-linked using 37% formaldehyde for 15 min followed by the addition of glycine solution to cease the cross-linking reaction.
The cells were washed with 4× volumes of 1×PBS and centrifuged at ˜220 g for 5 min. The pellet was resuspended and incubated for 10 min in 5 ml of tissue lysis buffer containing DTT and protease and phosphatase inhibitors. The subsequent steps to isolate the cross-linked chromatin were performed according to the manufacturer's protocol.
The cross-linked chromatin from each sample was apportioned into four equal parts. One quarter of the cross-linked chromatin was set aside as “input.” One quarter of the cross-linked chromatin from each sample was incubated with 5 μg of anti-ERα mouse antibody (Cell Signaling, Boston, Mass.) and 5 μg of anti-ERβ rabbit antibody (Upstate, Bedford, Mass.), or 5 μg of anti-LXRα rabbit antibody (Abcam, Cambridge, Mass.) and 5 μg of anti-LXRβ mouse antibody (Abcam, Cambridge, Mass.), while the remaining one quarter of the cross-linked chromatin from each sample was incubated with 5 μg of normal Rabbit IgG to serve as negative control. […]
The crude DNA extract was eluted and then washed several times with wash buffer containing ethanol (provided with the kit) followed by purification with the use of DNA spin columns provided by the manufacturer. […] The DNA fragment size was determined by electrophoresis on a 1.2% agarose FlashGel^R system (Lonza, Rockland, Me.).
The relative abundance of the ERα or ERβ antibody precipitated chromatin containing the ERE in the TH promoter region and LXRα or LXRβ antibody precipitated chromatin containing the LXRE in the α-synuclein promoter region was determined by qPCR using an iQ SYBR Green Supermix kit following the manufacturer's instructions (BioRad, Hercules, Calif.) and sequence specific primers (See Table 1 above). […] The fold enrichment of the ERE in the TH promoter region and LXRE in the α-synuclein promoter region was calculated using the ΔΔCt method (K. J. Livak et al., Methods, 25, 402 (2001)) which normalizes ChIP Ct values of each sample to the % input and background.

Consider `C[C@@H](CO)CCC[C@@H](C)[C@H]1CC[C@H]2[C@@H]3CC=C4C[C@@H](O)CC[C@]4(C)[C@H]3CC[C@]12C` [27-OHC, 27-hydroxycholesterol], for which the “LXRβ protein levels in the nucleus” value on LXRβ is “increases”. Besides, on LXRα, the “LXRα binding to the LXRE on the α-synuclein promoter” value is listed as “no significant augmentation”.
Regarding `CC(C)CCC[C@@H](C)[C@H]1CC[C@H]2[C@@H]3C[C@@H]4O[C@@]45C[C@@H](OS(=O)(=O)O)CC[C@]5(C)[C@H]3CC[C@]12C` [ECHS, 5α,6α-epoxycholesterol-3-sulfate], at LXRβ, the “LXRβ protein levels in the nucleus” value was “reduced”. In addition, at LXRβ (co-treatment with 10 μM 27-OHC), the “27-OHC-induced increase in LXRβ in the nucleus” value was “significantly attenuated”. The “LXRα binding to the LXRE on the α-synuclein promoter” value on LXRα is “did not significantly attenuate”.
As for `Cl.O=C(O)Cc1cccc(OCCCN(Cc2cccc(C(F)(F)F)c2Cl)CC(c2ccccc2)c2ccccc2)c1` [GW3965, 3-[3-[N-(2-Chloro-3-trifluoromethylbenzyl)-(2,2-diphenylethyl)amino]propyloxy]phenylacetic acid hydrochloride], the “LXRβ protein levels in the nucleus” value at LXRβ is listed as “more pronounced increase”. In addition, the “LXRα binding to the LXRE in the α-synuclein promoter” value on LXRα (in combination with 27-OHC) is on record as “did not elicit any increase”. In addition, the “LXRα binding to the LXRE on the α-synuclein promoter” value on LXRα is recorded as “did not elicit any increase”.

Values taken from patent US20150031655A1, “COMBINATION OF LIVER X RECEPTOR MODULATOR AND ESTROGEN RECEPTOR MODULATOR FOR THE TREATMENT OF AGE-RELATED DISEASES” (UNIVERSITY OF NORTH DAKOTA, priority 2011, published 2015).
